A value given as a limit tells only on which side of the number the result lay.

Chain of human recombinant LRRK2 protein (Q5S007 whole entry): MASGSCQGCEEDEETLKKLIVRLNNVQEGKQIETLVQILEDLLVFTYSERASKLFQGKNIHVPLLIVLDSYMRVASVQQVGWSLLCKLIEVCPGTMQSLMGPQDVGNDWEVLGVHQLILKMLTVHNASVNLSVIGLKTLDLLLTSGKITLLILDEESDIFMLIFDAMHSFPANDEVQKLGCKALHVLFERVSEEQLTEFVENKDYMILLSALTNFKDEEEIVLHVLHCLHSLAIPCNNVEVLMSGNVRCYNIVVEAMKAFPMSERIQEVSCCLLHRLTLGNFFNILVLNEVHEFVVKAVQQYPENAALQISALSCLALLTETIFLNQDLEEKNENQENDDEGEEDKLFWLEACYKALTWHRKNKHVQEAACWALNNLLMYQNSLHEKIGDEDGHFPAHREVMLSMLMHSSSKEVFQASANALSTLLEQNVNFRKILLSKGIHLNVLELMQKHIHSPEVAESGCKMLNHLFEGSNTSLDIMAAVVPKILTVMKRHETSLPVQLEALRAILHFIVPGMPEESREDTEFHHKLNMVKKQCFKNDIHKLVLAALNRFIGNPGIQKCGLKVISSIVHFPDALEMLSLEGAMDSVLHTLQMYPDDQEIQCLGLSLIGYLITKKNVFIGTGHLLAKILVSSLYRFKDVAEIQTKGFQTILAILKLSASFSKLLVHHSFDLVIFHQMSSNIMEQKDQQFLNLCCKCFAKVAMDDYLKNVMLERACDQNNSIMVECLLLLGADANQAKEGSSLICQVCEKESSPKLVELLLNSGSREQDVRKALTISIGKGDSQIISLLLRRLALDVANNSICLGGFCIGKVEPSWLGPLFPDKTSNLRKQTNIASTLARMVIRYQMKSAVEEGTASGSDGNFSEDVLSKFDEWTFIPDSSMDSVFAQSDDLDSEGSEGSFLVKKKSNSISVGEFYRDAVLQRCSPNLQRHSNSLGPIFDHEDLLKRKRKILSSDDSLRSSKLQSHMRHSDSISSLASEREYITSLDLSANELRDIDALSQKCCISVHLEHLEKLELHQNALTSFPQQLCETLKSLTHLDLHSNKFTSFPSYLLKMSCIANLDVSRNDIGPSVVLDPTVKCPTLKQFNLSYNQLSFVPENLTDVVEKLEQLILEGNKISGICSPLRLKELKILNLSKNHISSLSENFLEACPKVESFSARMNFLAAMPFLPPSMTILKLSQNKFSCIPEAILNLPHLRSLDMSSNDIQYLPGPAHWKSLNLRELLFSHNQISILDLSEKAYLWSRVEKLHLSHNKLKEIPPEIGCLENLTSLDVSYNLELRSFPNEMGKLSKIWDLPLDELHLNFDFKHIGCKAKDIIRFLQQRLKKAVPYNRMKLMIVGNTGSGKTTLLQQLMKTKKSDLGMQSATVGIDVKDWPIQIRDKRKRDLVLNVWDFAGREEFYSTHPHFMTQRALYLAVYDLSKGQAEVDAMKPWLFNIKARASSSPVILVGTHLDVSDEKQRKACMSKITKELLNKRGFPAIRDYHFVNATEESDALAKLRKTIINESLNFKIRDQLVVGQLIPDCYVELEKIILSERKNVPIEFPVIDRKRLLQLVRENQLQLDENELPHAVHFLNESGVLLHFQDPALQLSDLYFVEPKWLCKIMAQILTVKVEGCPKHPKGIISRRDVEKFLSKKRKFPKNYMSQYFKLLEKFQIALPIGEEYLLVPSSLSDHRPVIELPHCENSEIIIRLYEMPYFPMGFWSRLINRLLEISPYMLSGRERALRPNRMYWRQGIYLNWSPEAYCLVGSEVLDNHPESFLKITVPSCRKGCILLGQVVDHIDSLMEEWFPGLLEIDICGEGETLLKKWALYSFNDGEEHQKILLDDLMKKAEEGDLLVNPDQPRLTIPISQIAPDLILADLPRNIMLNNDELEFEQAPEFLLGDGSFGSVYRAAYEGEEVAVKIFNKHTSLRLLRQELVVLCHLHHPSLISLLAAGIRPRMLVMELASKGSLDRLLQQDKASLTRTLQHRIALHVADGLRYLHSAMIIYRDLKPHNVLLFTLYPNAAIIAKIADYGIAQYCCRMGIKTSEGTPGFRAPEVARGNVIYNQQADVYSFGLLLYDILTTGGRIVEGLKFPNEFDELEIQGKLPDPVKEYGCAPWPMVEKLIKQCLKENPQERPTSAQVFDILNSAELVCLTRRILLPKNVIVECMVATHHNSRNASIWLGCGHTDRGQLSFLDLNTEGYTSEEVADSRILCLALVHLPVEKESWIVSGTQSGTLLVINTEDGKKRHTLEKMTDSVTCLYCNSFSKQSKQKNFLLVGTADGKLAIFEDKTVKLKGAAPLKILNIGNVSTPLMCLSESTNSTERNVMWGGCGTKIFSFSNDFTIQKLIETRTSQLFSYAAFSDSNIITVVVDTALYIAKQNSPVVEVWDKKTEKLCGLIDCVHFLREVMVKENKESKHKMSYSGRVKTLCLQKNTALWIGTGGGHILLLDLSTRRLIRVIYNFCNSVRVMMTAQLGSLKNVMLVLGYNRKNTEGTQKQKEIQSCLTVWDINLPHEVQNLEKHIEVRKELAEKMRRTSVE

The assay addresses human recombinant LRRK2 protein (Homo sapiens (Human), UniProt Q5S007). The assay is described as follows: LRRK2 Kinase Activity Assay (ADP-Glo). Type of assay: biochemical. The following applies: LRRK2 wt; LRRKtide peptide and ATP substrates; 1h-incubation at 37° C. How it is done: LRRK2 Kinase reactions were carried out in 384-well white polystyrene plates in a final volume of 6 μl using ADP-Glo™ Kinase Assay kit (Promega Corp.). Compound and substrates (LRRKtide peptide and ATP) in assay buffer were first dispensed in wells. Kinase reaction was then started by the addition of human recombinant LRRK2 protein. After 1h-incubation at 37° C., the enzymatic reaction was stopped by the addition of 6 μl of ADP-Glo Reagent-1 and an additional 40-minutes incubation at 23° C. (residual ATP depletion). A final 30-minutes incubation after 12 μL reagent-2 addition (ADP to ATP conversion and luciferin/luciferase reaction) was performed before luminescent signal acquisition (EnVision™ multimode plate reader-PerkinElmer, Inc.). Data from 10 individual concentrations of tested compounds (N=2) were fitted (XLfit™-ID Business Solutions Ltd) to deliver IC50s (compound concentration leading to 50% inhibition of reference enzymatic activity).
The compounds are dissolved to 5 mM in DMSO. When needed, solutions are sonicated in a bath sonicator.
Table 2 provides the IC50 values of the compounds according to the invention, obtained using the above-mentioned kinase assay. Activities are represented as +++, ++ and +, having the following meanings: • +++ means IC50<10 nM • ++ means 10 nM≤IC50<100 nM • + means 100 nM≤IC50<1 μM.
(In general: In ADP-Glo the light output rises with the ADP produced.)
Take `O=C1NCCCOc2ccc3[nH]nc(c3c2)-c2cnn(c2)CCO1` [Example 51, 8,14-dioxa-4,5,10,19,20-pentaazatetracyclo[13.5.2.1^2,5.0^18,21]tricosa-1(20),2(23),3,15(22),16,18(21)-hexaen-9-one]: the IC50 is under 10 nM.
Take `CN(c1cc2cc(c1)-c1n[nH]c3ccc(cc13)OCCCNC(=O)OC2)C1COC1` [Example 52, 4-[methyl(oxetan-3-yl)amino]-8,14-dioxa-10,19,20-triazatetracyclo[13.5.2.1^2,6.0^18,21]tricosa-1(20),2,4,6(23),15,17,21-heptaen-9-one]: the IC50 was under 10 nM.
Regarding `CN(C)Cc1cc2cc(c1)-c1n[nH]c3ccc(cc13)OCCCNC(=O)OC2` [Example 53, 4-[(dimethylamino)methyl]-8,14-dioxa-10,19,20-triazatetracyclo[13.5.2.1^2,6.0^18,21]tricosa-1(20),2,4,6(23),15,17,21-heptaen-9-one], the IC50 fell in the range of 10 to 100 nM.
Take `Cc1cc2cc(c1)-c1n[nH]c3ccc(cc13)OCCCN(C)C(=O)OC2` [Example 54, 4,10-dimethyl-8,14-dioxa-10,19,20-triazatetracyclo[13.5.2.1^2,6.0^18,21]tricosa-1(20),2,4,6(23),15,17,21-heptaen-9-one]: the IC50 was under 10 nM.
`CC(C)Oc1cc2cc(c1)-c1n[nH]c3ccc(cc13)OCCCNC(=O)OC2` [Example 55, 4-(propan-2-yloxy)-8,14-dioxa-10,19,20-triazatetracyclo[13.5.2.1^2,6.0^18,21]tricosa-1(20),2,4,6(23),15,17,21-heptaen-9-one]: the IC50 was under 10 nM.
Consider `CC1OC(=O)NCCCOc2ccc3[nH]nc(c3c2)-c2cc(F)cc1c2` (stereo not shown) [Example 56, 4-fluoro-7-methyl-8,14-dioxa-10,19,20-triazatetracyclo[13.5.2.1^2,6.0^18,21]tricosa-1(20),2,4,6(23),15,17,21-heptaen-9-one], for which the concentration for half-maximal inhibition (IC50) was under 10 nM.
For the molecule `O=C1NCCCOc2ccc3[nH]nc(c3c2)-c2cc(cc(C3=CCN(C4COC4)CC3)c2)CO1` [Example 57, 4-[1-(oxetan-3-yl)-1,2,3,6-tetrahydropyridin-4-yl]-8,14-dioxa-10,19,20-triazatetracyclo[13.5.2.1^2,6.0^18,21]tricosa-1(20),2,4,6(23),15,17,21-heptaen-9-one], the IC50 was under 10 nM.
Consider `CC1CCCN(c2cc3cc(c2)-c2n[nH]c4ccc(cc24)OCCCNC(=O)OC3)C1` (stereo not shown) [Example 58, 4-(3-methylpiperidin-1-yl)-8,14-dioxa-10,19,20-triazatetracyclo[13.5.2.1^2,6.0^18,21]tricosa-1(20),2,4,6(23),15,17,21-heptaen-9-one], for which the IC50 was under 10 nM.
With `O=C1NCCCOc2ccc3[nH]nc(c3c2)-c2cc(cc(N3CC[C@H](O)C3)c2)CO1` [Example 59, 4-[(3S)-3-hydroxypyrrolidin-1-yl]-8,14-dioxa-10,19,20-triazatetracyclo[13.5.2.1^2,6.0^18,21]tricosa-1(20),2,4,6(23),15,17,21-heptaen-9-one], the IC50 was under 10 nM.
Turning to `O=C1OC2CN1CCCOc1ccc3[nH]nc(c3c1)-c1cc(F)cc2c1` (stereo not shown) [Example 60, 4-fluoro-8,14-dioxa-10,19,20-triazapentacyclo[13.5.2.1^2,6.1^7,10.0^18,21]tetracosa-1(20),2(24),3,5,15(22),16,18(21)-heptaen-9-one], the IC50 was under 10 nM.
As for `O=C1NCCCOc2ccc3[nH]nc(c3c2)-c2cc(cc(C3CCOC3)c2)CO1` (stereo not shown) [Example 61, 4-(oxolan-3-yl)-8,14-dioxa-10,19,20-triazatetracyclo[13.5.2.1^2,6.0^18,21]tricosa-1(20),2,4,6(23),15,17,21-heptaen-9-one], the IC50 was under 10 nM.
As to `C[C@H]1CCNC(=O)OCc2cccc(c2)-c2n[nH]c3ccc(cc23)O1` [Example 62, (13S)-13-methyl-8,14-dioxa-10,19,20-triazatetracyclo[13.5.2.1^2,6.0^18,21]tricosa-1(20),2(23),3,5,15(22),16,18(21)-heptaen-9-one], the IC50 is under 10 nM.
With `C[C@@H]1CCNC(=O)OCc2cccc(c2)-c2n[nH]c3ccc(cc23)O1` [Example 63, (13R)-13-methyl-8,14-dioxa-10,19,20-triazatetracyclo[13.5.2.1^2,6.0^18,21]tricosa-1(20),2(23),3,5,15(22),16,18(21)-heptaen-9-one], the IC50 is under 10 nM.
On to `Cn1ccc(-c2cc3cc(c2)-c2n[nH]c4ccc(cc24)OCCCNC(=O)OC3)n1` [Example 64, 4-(1-methyl-1H-pyrazol-3-yl)-8,14-dioxa-10,19,20-triazatetracyclo[13.5.2.1^2,6.0^18,21]tricosa-1(20),2(23),3,5,15(22),16,18(21)-heptaen-9-one], for which the IC50 was under 10 nM.
For `C[C@@H]1OC(=O)NCCCOc2ccc3[nH]nc(c3c2)-c2cccc1c2` [Example 65, (7S)-7-methyl-8,14-dioxa-10,19,20-triazatetracyclo[13.5.2.1^2,6.0^18,21]tricosa-1(20),2(23),3,5,15(22),16,18(21)-heptaen-9-one], the IC50 lay in the range of 10 to 100 nM.
Turning to `O=C1NCCCOc2ccc3[nH]nc(c3c2)-c2cc(cc(OCCN3CCOCC3)c2)CO1` [Example 66, 4-[2-(morpholin-4-yl)ethoxy]-8,14-dioxa-10,19,20-triazatetracyclo[13.5.2.1^2,6.0^18,21]tricosa-1(20),2(23),3,5,15(22),16,18(21)-heptaen-9-one], the IC50 is under 10 nM.
For the molecule `COCCc1cc2cc(c1)-c1n[nH]c3ccc(cc13)OCCCNC(=O)OC2` [Example 67, 4-(2-methoxyethyl)-8,14-dioxa-10,19,20-triazatetracyclo[13.5.2.1^2,6.0^18,21]tricosa-1(20),2(23),3,5,15(22),16,18(21)-heptaen-9-one], the concentration for half-maximal inhibition (IC50) is under 10 nM.
Next, `C[C@H]1OC(=O)NCCCOc2ccc3[nH]nc(c3c2)-c2cccc1c2` [Example 68, (7R)-7-methyl-8,14-dioxa-10,19,20-triazatetracyclo[13.5.2.1^2,6.0^18,21]tricosa-1(20),2(23),3,5,15(22),16,18(21)-heptaen-9-one]: under 10 nM; `O=C1NCCCOc2ccc3[nH]nc(c3c2)-c2ccc(C3CC3)c(c2)CO1` [Example 69, 5-cyclopropyl-8,14-dioxa-10,19,20-triazatetracyclo[13.5.2.1^2,6.0^18,21]tricosa-1(20),2,4,6(23),15,17,21-heptaen-9-one]: under 10 nM.
Take `COCCOc1cc2cc(c1)-c1n[nH]c3ccc(cc13)OCCCNC(=O)OC2` [Example 70, 4-(2-methoxyethoxy)-8,14-dioxa-10,19,20-triazatetracyclo[13.5.2.1^2,6.0^18,21]tricosa-1(20),2,4,6(23),15,17,21-heptaen-9-one]: the IC50 is under 10 nM.
The figure for `CC1CCNC(=O)OCc2cc(F)cc(c2)-c2n[nH]c3ccc(cc23)O1` (stereo not shown) [Example 71, 4-fluoro-13-methyl-8,14-dioxa-10,19,20-triazatetracyclo[13.5.2.1^2,6.0^18,21]tricosa-1(20),2,4,6(23),15,17,21-heptaen-9-one] is under 10 nM.
As to `CC1CCOc2ccc3[nH]nc(c3c2)-c2cccc(c2)COC(=O)N1` (stereo not shown) [Example 72, 11-methyl-8,14-dioxa-10,19,20-triazatetracyclo[13.5.2.1^2,6.0^18,21]tricosa-1(20),2,4,6(23),15,17,21-heptaen-9-one], the IC50 was under 10 nM.

What is called IC50 is the concentration that inhibits the measured activity by half.

(Values after patent US20230357269A1 (LES LABORATOIRES SERVIER, priority 2020, published 2023).)
